Data as given in US11013696B2, “Lipids and lipid compositions for the delivery of active agents” (Novartis AG, priority 2013, dated 2021).

Assays:
Format in all cases: physicochemical
[1] = Entrapment and RNA concentration of RSV-F replicon liposomes (Quant-iT RiboGreen)
Procedure: RNA was encapsulated in liposomes made essentially by the method of Geall et al. (2012) PNAS vol. 109 (36): 14604-14609, Jeffs et al. (2005) Pharmaceutical Research 22 (3):362-372 and Maurer et al. (2001) Biophysical Journal, 80: 2310-2326 The liposomes were made of 10% DSPC (zwitterionic), 40% cationic lipid, 48% cholesterol and 2% PEG-conjugated DMG (2 kDa PEG). These proportions refer to the % moles in the total liposome.
Briefly, lipids were dissolved in ethanol (2 ml), a RNA replicon was dissolved in buffer (2 ml, 100 mM sodium citrate, pH 6) and these were mixed with 2 ml of buffer followed by 1 hour of equilibration. The mixture was then dialized overnight against 1×PBS. The resulting product contained liposomes, with ˜70-95% encapsulation efficiency. For in vitro and in vivo experiments formulations were diluted to the required RNA concentration with 1×PBS.
The percentage of encapsulated RNA and RNA concentration were determined by Quant-iT RiboGreen RNA reagent kit (Invitrogen), following manufacturer's instructions. The ribosomal RNA standard provided in the kit was used to generate a standard curve. Liposomes were diluted 10× or 100× in 1×TE buffer (from kit) before addition of the dye. Separately, liposomes were diluted 10× or 100× in 1×TE buffer containing 0.5% Triton X before addition of the dye (to disrupt the liposomes and thus to assay total RNA). Thereafter an equal amount of dye was added to each solution and then ˜180 μL of each solution after dye addition was loaded in duplicate into a 96 well tissue culture plate. The fluorescence (Ex 485 nm, Em 528 nm) was read on a microplate reader. All liposome formulations were dosed in vivo based on the encapsulated amount of RNA.
A self-replicating replicon encoding RSV F protein was administered to BALB/c mice, 8 animals per group, by bilateral intramuscular vaccinations (50 μL per leg) on days 0 and 21 with the replicon (0.1 and 1 ng) formulated as liposomes with the lipids described below. All liposomes tested were composed of 40% cationic lipid, 10% DSPC, 48% cholesterol and 2% PEG-DMG with similar amounts of RNA. The liposomes were all prepared using the same technique as described above.
% entrapment (% E), Concentration of RNA (Conc), particle size measured by DLS, and polydispersity reported by DLS of LNPs prepared with different cationic lipids

[2] = Percent encapsulation of mRNA in lipid nanoparticles (Quant-iT Ribogreen); details: for % encapsulation mRNA Leptin: Table 2, leptin mRNA in LNP with the cationic lipid
Summary of the method: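 LNPs made by T-junction mixing of ethanolic lipids (cationic lipid:DSPC:cholesterol:PEG lipid 40:10:38:2, N:P 4:1) with mRNA in citrate pH 5.8-6.0, then dialysed against PBS overnight at 4 °C. RiboGreen fluorescence (ex 480/em 520 nm) measured in TE ± 0.75% Triton X-100; encapsulation = (total − free)/total.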

[3] = Particle size and PDI of lipid nanoparticles by dynamic light scattering (Malvern Zetasizer)
From the text: The lipid nanoparticles have a size of about 1 to about 2,500 nm, about 10 to about 1,500 nm, about 20 to about 1,000 nm, in a sub-embodiment about 50 to about 600 nm, in a sub-embodiment about 50 to about 400 nm, in a sub-embodiment about 50 to about 250 nm, and in a sub-embodiment about 50 to about 150 nm. Unless indicated otherwise, all sizes referred to herein are the average sizes (diameters) of the fully formed nanoparticle, as measured by dynamic light scattering on a Malvern Zetasizer. The nanoparticle sample is diluted in phosphate buffered saline (PBS) so that the count rate is approximately 200-400 kcts. The data is presented as a weighted average of the intensity measure.
Unless indicated otherwise, all PDIs referred to herein are the PDI of the fully formed nanoparticle, as measured by dynamic light scattering on a Malvern Zetasizer. The nanoparticle sample was diluted in phosphate buffered saline (PBS) so that the count rate was approximately 200-400 kcts. The data is presented in Table 3 as a weighted average of the intensity measure.
Unless indicated otherwise, all particle size measurements referred to in Table 3 are the Z-average particle size of the fully formed nanoparticle, as measured by dynamic light scattering on a Malvern Zetasizer. The nanoparticle sample was diluted in phosphate buffered saline (PBS) so that the count rate is approximately 200-400 kcts.

[4] = RSV-F replicon LNP prepared for 1st IM
[5] = RSV-F replicon LNP prepared for 2nd IM

| PDI ([3]; FVII siRNA LNP) | Size ([3]; FVII siRNA LNP) [nm] | PDI ([3]; Gluc mRNA LNP) | Size ([3]; Gluc mRNA LNP) [nm] | PDI ([3]; hFIX mRNA LNP) | Size ([3]; hFIX mRNA LNP) [nm] | PDI ([3]; hLep plasmid LNP) | Size ([3]; hLep plasmid LNP) [nm] | PDI ([3]; hLeptin mRNA LNP) | Size ([3]; hLeptin mRNA LNP) [nm] | PDI ([3]; pDNA LNP) | SMILES | % E (% entrapment) [1, 4] [%] | % E (% entrapment) [1, 5] [%] | % encapsulation mRNA Leptin [2] [%] | PDI ([3]; FLuc mRNA LNP) | Size ([3]; FLuc mRNA LNP) [nm] | PDI ([3]; mEPO mRNA LNP) | Size ([3]; mEPO mRNA LNP) [nm] | % Encap. ([2]; FLuc mRNA) [%] | % Encap. ([2]; mEPO mRNA) [%] | other results |
| --- | --- | --- | --- | --- | --- | --- | --- | --- | --- | --- | --- | --- | --- | --- | --- | --- | --- | --- | --- | --- | --- |
| – | – | – | – | – | – | – | – | – | – | – | CCCCCCCCCC(=O)OCCC(CC(CCCCCCCC)CCCCCCCC)OC(=O)OCCCN(C)C (centres unmarked) [Example 70, 3-(((3-(dimethylamino)propoxy)carbonyl)oxy)-5-octyltridecyl decanoate] | 90.75 | 94.24 | 98.3 | – | – | – | – | – | – | – |
| 0.075 | 95.7 | 0.145 | 106.7 | 0.141 | 102.6 | 0.155 | 102.6 | 0.103 | 122.6 | 0.128 | CCCCCCCCCCCCC(CCOC(=O)CCCCC(OCCCCCCCC)OCCCCCCCC)OC(=O)OCCCN(CC)CC (centres unmarked) [Example 16, 3-(((3-(diethylamino)propoxy)carbonyl)oxy)pentadecyl 6,6-bis(octyloxy)hexanoate] | – | – | 97.7 | 0.145 | 106.7 | 0.112 | 83.2 | 96.8 | 97.9 | Size ([3]; pDNA LNP): 101.6 nm; % Encap. ([2]; Gluc mRNA): 97.9%; % Encap. ([2]; hFIX mRNA): 96.9%; % Encap. ([2]; hLeptin mRNA): 98.1% |
| – | – | – | – | – | – | – | – | – | – | – | CCCCCCCCCCCCC(CCOC(=O)CCCCC(OCC(CC)CCCC)OCC(CC)CCCC)OC(=O)OCCCN(CC)CC (centres unmarked) [Example 18, 3-(((3-(diethylamino)propoxy)carbonyl)oxy)pentadecyl 6,6-bis((2-ethylhexyl)oxy)hexanoate] | 96.15 | 96.25 | 97.1 | – | – | – | – | – | – | – |
| 0.073 | 122.6 | 0.113 | 76.9 | 0.079 | 148.3 | 0.153 | 109.8 | 0.101 | 119.1 | 0.152 | CCCCC/C=C\C/C=C\CCCCCCCCC(CCC(=O)OC(COC(=O)CCCCCCC)COC(=O)CCCCCCC)OC(=O)OCCCN(C)C (centres unmarked) [Example 94, 2-(((13Z,16Z)-4-(((3-(dimethylamino)propoxy)carbonyl)oxy)docosa-13,16-dienoyl)oxy)propane-1,3-diyl dioctanoate] | – | – | 98.1 | 0.093 | 129.2 | 0.099 | 108.5 | 93.7 | 96.4 | Size ([3]; pDNA LNP): 123.5 nm; % Encap. ([2]; Gluc mRNA): 95.9%; % Encap. ([2]; hFIX mRNA): 96.9%; % Encap. ([2]; hLeptin mRNA): 98.1% |

| SMILES | PDI ([3]; FVII siRNA LNP) | Size ([3]; FVII siRNA LNP) [nm] | PDI ([3]; Gluc mRNA LNP) | Size ([3]; Gluc mRNA LNP) [nm] | PDI ([3]; hFIX mRNA LNP) | Size ([3]; hFIX mRNA LNP) [nm] | PDI ([3]; hLep plasmid LNP) | Size ([3]; hLep plasmid LNP) [nm] | PDI ([3]; hLeptin mRNA LNP) | Size ([3]; hLeptin mRNA LNP) [nm] | PDI ([3]; pDNA LNP) | % E (% entrapment) [1, 4] [%] | % E (% entrapment) [1, 5] [%] | % encapsulation mRNA Leptin [2] [%] | PDI ([3]; FLuc mRNA LNP) | Size ([3]; FLuc mRNA LNP) [nm] | PDI ([3]; mEPO mRNA LNP) | Size ([3]; mEPO mRNA LNP) [nm] | % Encap. ([2]; FLuc mRNA) [%] | % Encap. ([2]; mEPO mRNA) [%] | other results |
| --- | --- | --- | --- | --- | --- | --- | --- | --- | --- | --- | --- | --- | --- | --- | --- | --- | --- | --- | --- | --- | --- |
| CCCCC/C=C\C/C=C\CCCCCCCC(=O)OCC(COC(=O)CCCCCCC/C=C\C/C=C\CCCCC)OC(=O)CCC(CCCCCCCCCCCC)OC(=O)OCCCN(C)C (centres unmarked) [Example 80, (9Z,9′Z,12Z,12′Z)-2-((4-(((3-(dimethylamino)propoxy)carbonyl)oxy)hexadecanoyl)oxy)propane-1,3-diyl bis(octadeca-9,12-dienoate)] | 0.051 | 97.3 | – | – | – | – | – | – | – | – | – | – | – | – | 0.085 | 193.5 | 0.083 | 166.0 | 85.3 | 96.2 | – |
| CCCCCCCCCCCCC(CCOC(=O)CCCCC(COC(=O)CCCCCCC)COC(=O)CCCCCCC)OC(=O)OCCCN(CC)CC (centres unmarked) [Example 1, 2-(10-dodecyl-3-ethyl-8,14-dioxo-7,9,13-trioxa-3-azaoctadecan-18-yl)propane-1,3-diyl dioctanoate] | – | – | 0.093 | 84.7 | 0.082 | 95.5 | 0.138 | 109.8 | 0.071 | 128.1 | 0.135 | 91.11 | 87.13 | 97.1 | 0.100 | 108.8 | 0.073 | 104.1 | 94.7 | 95.8 | Size ([3]; pDNA LNP): 110 nm; % Encap. ([2]; Gluc mRNA): 97.3%; % Encap. ([2]; hFIX mRNA): 94.0%; % Encap. ([2]; hLeptin mRNA): 97.1% |
